According to the METLIN SMRT retention time set (Domingo-Almenara et al. 2019):

Test: gradient 5% acetonitrile 3 min, to 50% in 2 min, to 85% in 15 min, held 3 min, 100 µL/min
Settings: column: Zorbax Extend-C18 2.1 x 50 mm; eluents: water / acetonitrile, 0.1% formic acid
Procedure, shortened: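 The mobile phases were water and acetonitrile, each with 0.1% formic acid, pumped at 100 μL/min through a Zorbax Extend-C18 column (2.1 × 50 mm, 1.8 μm). Pure standards were injected as mixtures of ~100 molecules and detected by a quadrupole time-of-flight mass spectrometer in positive and negative ionization mode. Retention time came from computationally picked adduct peaks, each inspected by hand.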

RP-LC retention time [s] | Structure (SMILES)
912 | O=C(Cn1c2ccccc2n2c(=O)cc(-c3ccc(F)cc3)nc12)NCc1ccco1
794 | Oc1cccc(-c2nc3cnc(Br)cn3c2Nc2ccc3c(c2)OCCO3)c1
745 | CN(C)C(=O)c1cc(N(C)C)nc2c(Cl)cccc12
764 | Cc1cc(SCC(=O)c2ccc3c(c2)OCO3)nc(C(C)C)n1
692 | CCOc1ccc(CNC(=O)C2CCN(S(=O)(=O)c3cn(C)cn3)CC2)cc1
882 | COc1ccc(C2C(=O)N(C3CCCCC3)CC(=O)N2Cc2cccs2)cc1OC (stereo unspecified)
843 | Cc1ccc(NC(=O)N2CCC(N3CCN(Cc4ccccc4)C3=O)CC2)c(C)c1
856 | O=C(C1CC1)N1CCc2sc(S(=O)(=O)NCc3ccc(Cl)cc3)cc2C1
961 | Cc1ccc(S(=O)(=O)N2CCCN(c3ccc(=O)n(-c4ccc(F)cc4)n3)CC2)c(C)c1
1090 | CCN(CC)c1nc2cc(C(=O)NCCC(C)C)ccc2c(=O)n1-c1ccccc1
925 | Cc1nc(COc2ccccc2)sc1C(=O)N1CCC(C(N)=O)CC1
802 | O=C(CC1CCN(C(=O)c2cc3cc(Cl)ccc3[nH]2)CC1)NCc1ccco1
665 | CC(=O)c1ccc(NC(=O)c2[nH]c3cc(C)sc3c2CN2CCCC2)cc1
595 | O=C(NC1CCCC1)c1nc(C(=O)N2CCN(c3ccccn3)CC2)cs1
603 | Cc1cc(=O)n(CC(=O)Nc2cccc(F)c2)c(N)n1
638 | CCC(=O)Nc1ccc(CCc2nc3ccc(C(=O)NCc4ccc(C)o4)cc3[nH]2)cc1
659 | CC(C)CNC(=O)C1CCCN(c2ccnc(-c3ccc(F)cc3)n2)C1 (stereo unspecified)
927 | O=C(Nc1ccccc1C(=O)N1CCN(c2ccccc2F)CC1)C1=CSCCO1

RP-LC retention time [s] | Structure (SMILES)
825 | Cc1ccc(NC(=O)Cn2nc(C(=O)N3CCOCC3)c3ccccc32)c(Br)c1
571 | CCOC(=O)c1[nH]c(C)c(C(=O)NCCN(C)C)c1C
870 | CCC(C)NC(=O)Cn1cccc(-c2nc(-c3ccc(Br)cc3)no2)c1=O (stereo unspecified)
730 | O=C(CSc1ccc(N2CCOCC2)nn1)Nc1ccccc1Cl
599 | CC(C)CN1CCn2cc(C(=O)N3CCC(C)CC3)nc2C1
577 | Cc1ccsc1C(=O)N1CCC2(CC1)CC(N1CCOCC1)CCO2 (stereo unspecified)
644 | CCOCC(=O)N1CCC(N2CC(OCC3CC3)C23CCCCC3)CC1 (stereo unspecified)
957 | COc1ccccc1NC(=O)Cn1nc2c(Oc3cc(C)cc(C)c3)nccn2c1=O
1300 | COc1ccc(-n2c(=O)c(C(=O)Nc3cc(F)cc(F)c3)c(O)c3cccnc32)cc1
649 | O=C(CSCc1nc2cccnc2n1C1CCCCC1)N1CCN(c2ccccn2)CC1
764 | O=C(c1ccc(-c2cccnc2)nc1)N1CCN(c2ccccc2Cl)CC1
702 | COC(=O)c1c(C)[nH]c(C(=O)N2CCC(CC(=O)NCc3ccc(C)o3)CC2)c1C
1020 | Cc1cc(C)cc(-n2ccn(Cc3nc(-c4ccc(C)cc4C)no3)c(=O)c2=O)c1
1080 | COC(=O)CC1=CC(SCC(=O)N2CCN(c3ccccc3)CC2)=Nc2ccccc2N1
663 | COC(=O)c1ccc(Cl)cc1NC(=O)N1CCN(CCn2cnc3cccnc32)CC1
670 | CCOc1ccc(NC(=O)NCC(c2cccnc2)c2c[nH]c3ccccc23)cc1 (stereo unspecified)
646 | Cc1ccccc1Cn1c(CN2CCC(C(=O)NCCCN3CCCC3)CC2)cc2ccccc21
911 | O=C(NCCCc1ccccc1)c1nnc(-c2ccc(S(=O)(=O)N3CCOCC3)cc2)o1
